Earlier results in article PMC6099358 (Diabetes, Obesity & Metabolism, 2018).
Where two headings read alike, the source gives them in different places.

Test system: participants with T1DM
Conditions: cited from earlier work; for DKA events, certain / DKA events, potential: 24 weeks; for DKA: vs placebo 0

SMILES	DKA events, certain (5 mg)	DKA events, potential (5 mg)	DKA events, certain (10 mg)	DKA events, potential (10 mg)	DKA (100 mg)	DKA (300 mg)
CCOc1ccc(Cc2cc([C@@H]3O[C@H](CO)[C@@H](O)[C@H](O)[C@H]3O)ccc2Cl)cc1 [dapagliflozin]	4 [1%] participants [%]	16 [6%] participants [%]	5 [2%] participants [%]	19 [6%] participants [%]	–	–
Cc1ccc([C@@H]2O[C@H](CO)[C@@H](O)[C@H](O)[C@H]2O)cc1Cc1ccc(-c2ccc(F)cc2)s1 [canagliflozin]	–	–	–	–	5 [4.3%] participants [%]	7 [6.0%] participants [%]
